Laboratory results from US8026218B2, “Bifunctional analgesic compounds for opioid receptor agonists and neurokinin-1 receptor antagonists” (The University of Arizona, priority 2006, dated 2011).
Several values for one entry are separate records, joined by “and”; a condition that tells them apart may be missing. Equal entries are not always repeated. Entries after “also recorded” stand apart in the source; their conditions may differ. Where two headings read alike, the source gives them in different places.

Key:
[1] = molecular target: T1, human NK1 receptor (hNK1) (Homo sapiens, UniProt P25103); settings: Cascieri 1994; cited from earlier work
T1 construct: expressed in transfected cells

[2] = molecular target: T2, Substance P receptors (guinea pig NK1) (Cavia porcellus, UniProt P30547); assay: Guinea pig isolated ileum (GPI) assay with substance P stimulation in presence of 1 μM naloxone
T2 construct: from tissue; host or cells: guinea pig (Hartley) ileum LMMP, 1 μM naloxone present

[3] = molecular target: T3, human δ opioid receptors (hDOR) (Homo sapiens, UniProt P41143); assay: [35S]GTP-γ-S binding assay, hDOR; type: biochemical
T3 construct: expressed in transfected cells; host or cells: HN9.10 neuroblastoma cell line, pCDNA3, neomycin-selected clones

male Sprague Dawley rats [4] = assay: Anti-nociception, infrared radiant heat paw withdrawal latency; type: in vivo, rat; settings: i.th.
Description: (§1) To estimate the analgesic potency of the chimeric compounds, anti-nociceptive, anti-hyperalgecia and anti-allodynic efficacies is tested via intrathecal (i.th.) or systemic (s.c.) administration of the compounds in L5/L6 spinal nerve ligated (SNL) male Sprague Dawley rats. Anti-nociception and anti-hyperalgecia were determined by using the infrared thermal testing, wherein paw withdrawal latencies were measured in response to a mobile radiant heat (FIG. 7-14). Anti-allodynic effect was measured in von Frey filamental testing (FIG. 7-14). Both chronic and acute animal models were tested ([…]).
(§2) In vivo Biological Activity. […] Food and water was available ad libitum. […] I.th. […] Each training session lasted three minutes. […] Discussion.

[5] = Solubility in HEPES buffer; type: physicochemical; settings: pH 7.4; 0.05 N HEPES buffer in 0.1 N NaCl solution
Description: Solubility. HEPES buffer (0.05 M HEPES buffer in 0.1 M NaCl, pH 7.4, 500 μL) was added to 1 mg of compound. The sample was vortexed for 30 sec, sonicated for 5 min, shaken at r.t. for 2 h, and then allowed to be stayed overnight to equilibration. The sample was filtrated with an Acrodisc Syringe Filter (13 mm, 0.45 μm pore, PTFE membrane, Pall Life Sciences, East Hills, N.Y.).

normal, uninjured rats [6] = assay: Rotarod motor skill test; settings: highest analgesic dose 30 μg
δ opioid receptors (MVD) = molecular target: T4, δ opioid receptors (MVD) (Mus musculus, UniProt P32300); assay: Mouse isolated vas deferens (MVD) assay, opioid agonist
T4 construct: from tissue; host or cells: mouse (ICR) isolated vas deferens

[7] = molecular target: T5, rat μ opioid receptors (rMOR) (Rattus norvegicus, UniProt P33535); assay: biochemical; type: biochemical
T5 construct: expressed in transfected cells; host or cells: HN9.10 neuroblastoma cell line, pCDNA3, neomycin-selected clones

[8] = Brain distribution, in situ perfusion model; type: in vivo; settings: FIG. 20
male Sprague Dawley rats [9] = assay: Observation of toxicity throughout the in vivo studies; design: species or system rat
Source text: as §2
These assays gave the inventors very encouraging results.

[10] = molecular target: T1, human NK1 receptor (hNK1); assay: Radioligand competition binding, [3H]-Substance P, hNK1; settings: Ki rNK1 vs Ki hNK1
[11] = test system: L5/L6 spinal nerve ligated (SNL) male Sprague Dawley rats; assay: Anti-allodynia, von Frey filament testing in L5/L6 SNL rats; type: in vivo, rat; settings: for anti-allodynic effect against mechanical stimulation: SNL rats, words
Description: as §1, §2

μ opioid receptors (GPI) = assay: Guinea pig isolated ileum (GPI) assay, opioid agonist;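 further: inhibition of electrically evoked contractions (0.1 Hz, 0.4 msec, supramaximal voltage) in organ baths at 37 °C, contraction height 3 min after each cumulative dose versus the 1 min before dosing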
Description: Guinea Pig Isolated Ileum Assay. […] These tissues were tied to gold chains with suture silk and mounted between platinum wire electrodes in 20 mL organ baths at a tension of 1 g and bathed in oxygenated (95:5 O2:CO2) Kreb's bicarbonate buffer at 37° C. and stimulated electrically (0.1 Hz, 0.4 msec duration) at supramaximal voltage. Following an equilibration period, compounds were added cumulatively to the bath in volumes of 14-60 μL until maximum inhibition was reached. A baseline PL-017 was constructed to determine tissue integrity and allow calculation of antagonist activity before opioid analog testing began.
For opioid data analysis, percentage inhibition was calculated using the average tissue contraction height for 1 min preceding the addition of the agonist divided by the contraction height 3 min after exposure to the dose of agonist. […] IC50 and Emax estimates were determined by computerized nonlinear least-squares analysis (the pharmacological statistics package FlashCalc: Dr. Michael Ossipov, University of Arizona, Tucson, Ariz.). […] A50 values represent the mean of not less than 4 tissues. A50 and Emax estimates were determined by computerized nonlinear least-squares analysis (FlashCalc).

[12] = molecular target: T3, human δ opioid receptors (hDOR); assay: Radioligand competition binding, [3H]DPDPE, hDOR membranes; settings: membranes from transfected HN9.10 cells
[13] = test system: L5/L6 spinal nerve ligated (SNL) male Sprague Dawley rats; assay: Anti-hyperalgesia, infrared radiant heat in L5/L6 SNL rats; type: in vivo, rat
Description: as §1, §2

[14] = Octanol/saline distribution (logD7.4); type: physicochemical; settings: 0.05 N HEPES buffer in 0.1 N NaCl
Description: HEPES buffer (0.05 M HEPES buffer in 0.1 M NaCl, pH 7.4, 500 μL) was added to 2 mg of compound and mixed with 500 μL of 1-octanol. The sample was shaken at r.t. for 12 h to allow equilibrating. The sample was centrifuged at 6500 rpm in a VanGuard V6500 (GlaxoSmithKline, Research Triangle Park, N.C.) for 15 min. The layers were separated and each layer was centrifuged once again. The compound concentrations of obtained layers were analyzed by HPLC (30-70% of acetonitrile containing 0.1% TFA within 20 min and up to 95% within additional 5 min, 1 mL/min, 230 nm, Vydac 218TP104 C-18 column). The logarithm of 1-octanol/saline distribution (logD7.4) was calculated as the ratio of compound concentration in the 1-octanol and saline phases.
Octanol/saline distribution (logD7.4) (Yamamoto, 2007, J. Med. Chem., submitted). HEPES buffer (0.05 M HEPES buffer in 0.1 M NaCl, pH 7.4, 500 μL) was added to 2 mg of compound and mixed with 500 μL of 1-octanol. The sample was shaken at r.t. for 12 h to allow equilibrating. The sample was centrifuged at 6500 rpm in a VanGuard V6500 (GlaxoSmithKline, Research Triangle Park, N.C.) for 15 min. The layers were separated and each layer was centrifuged once again. The compound concentrations in the obtained layers were analyzed by HPLC (30-70% of acetonitrile containing 0.1% TFA within 20 min and up to 95% within additional 5 min, 1 mL/min, 230 nm, Vydac 218TP104 C-18 column). The logarithm of 1-octanol/saline distribution (logD7.4) was calculated as the ratio of compound concentration in the 1-octanol and saline phases.

rat NK1 (rNK1) receptor = molecular target: T6, rat NK1 (rNK1) receptor (Rattus norvegicus, UniProt P14600); assay: Radioligand competition binding, [3H]substance P, rNK1/CHO membranes; settings: for IC50: membranes from transfected CHO cells
T6 construct: expressed in transfected cells; host or cells: CHO (rNK-1/CHO cell line from Dr. James Krause)

normal, uninjured rats [15] = settings: reported; cited from earlier work
[16] = chronic, i.th., SNL-operated animals

T3 sequence (P41143 whole entry): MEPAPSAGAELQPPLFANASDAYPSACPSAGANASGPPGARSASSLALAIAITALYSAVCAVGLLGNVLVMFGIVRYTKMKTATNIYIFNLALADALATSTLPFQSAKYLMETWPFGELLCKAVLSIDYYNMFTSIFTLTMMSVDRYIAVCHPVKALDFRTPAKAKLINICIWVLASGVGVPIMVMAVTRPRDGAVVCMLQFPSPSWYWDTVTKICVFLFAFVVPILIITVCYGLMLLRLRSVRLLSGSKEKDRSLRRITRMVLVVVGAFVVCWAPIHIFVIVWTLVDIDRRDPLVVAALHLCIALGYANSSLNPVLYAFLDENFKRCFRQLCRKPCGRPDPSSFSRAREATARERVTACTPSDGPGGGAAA
T5 sequence (P33535 whole entry): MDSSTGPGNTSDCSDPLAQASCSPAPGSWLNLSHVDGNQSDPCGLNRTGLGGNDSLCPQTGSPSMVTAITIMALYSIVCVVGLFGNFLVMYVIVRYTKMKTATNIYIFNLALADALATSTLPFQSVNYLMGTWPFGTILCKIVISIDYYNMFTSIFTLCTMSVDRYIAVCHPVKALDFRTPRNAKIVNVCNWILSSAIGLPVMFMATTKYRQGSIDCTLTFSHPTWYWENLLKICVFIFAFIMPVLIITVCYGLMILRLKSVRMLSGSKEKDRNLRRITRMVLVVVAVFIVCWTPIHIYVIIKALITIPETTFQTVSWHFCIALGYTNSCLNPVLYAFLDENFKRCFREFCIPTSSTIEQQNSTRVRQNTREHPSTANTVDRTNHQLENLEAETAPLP
T2 sequence (P30547 whole entry): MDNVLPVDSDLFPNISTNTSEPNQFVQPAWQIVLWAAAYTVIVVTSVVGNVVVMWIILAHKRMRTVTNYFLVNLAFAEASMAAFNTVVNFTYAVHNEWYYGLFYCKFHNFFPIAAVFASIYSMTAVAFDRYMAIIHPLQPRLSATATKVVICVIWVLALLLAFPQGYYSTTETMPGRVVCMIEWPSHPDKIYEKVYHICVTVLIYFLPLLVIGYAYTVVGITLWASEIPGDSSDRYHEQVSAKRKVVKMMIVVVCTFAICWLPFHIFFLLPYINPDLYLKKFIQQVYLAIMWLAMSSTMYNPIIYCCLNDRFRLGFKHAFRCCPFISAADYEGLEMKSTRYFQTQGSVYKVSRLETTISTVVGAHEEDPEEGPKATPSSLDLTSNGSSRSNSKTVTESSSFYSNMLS
T6 sequence (P14600 whole entry): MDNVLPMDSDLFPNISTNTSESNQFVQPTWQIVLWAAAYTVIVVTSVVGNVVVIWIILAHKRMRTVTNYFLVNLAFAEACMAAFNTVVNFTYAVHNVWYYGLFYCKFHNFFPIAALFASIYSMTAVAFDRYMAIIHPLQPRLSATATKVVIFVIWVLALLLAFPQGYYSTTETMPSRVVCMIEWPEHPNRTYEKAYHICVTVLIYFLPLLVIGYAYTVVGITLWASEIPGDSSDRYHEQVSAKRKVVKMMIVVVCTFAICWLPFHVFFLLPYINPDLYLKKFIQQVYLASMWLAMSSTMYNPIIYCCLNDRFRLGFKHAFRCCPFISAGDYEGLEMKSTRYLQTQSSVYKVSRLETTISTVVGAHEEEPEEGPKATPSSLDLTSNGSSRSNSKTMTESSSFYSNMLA
T1 sequence (P25103 whole entry): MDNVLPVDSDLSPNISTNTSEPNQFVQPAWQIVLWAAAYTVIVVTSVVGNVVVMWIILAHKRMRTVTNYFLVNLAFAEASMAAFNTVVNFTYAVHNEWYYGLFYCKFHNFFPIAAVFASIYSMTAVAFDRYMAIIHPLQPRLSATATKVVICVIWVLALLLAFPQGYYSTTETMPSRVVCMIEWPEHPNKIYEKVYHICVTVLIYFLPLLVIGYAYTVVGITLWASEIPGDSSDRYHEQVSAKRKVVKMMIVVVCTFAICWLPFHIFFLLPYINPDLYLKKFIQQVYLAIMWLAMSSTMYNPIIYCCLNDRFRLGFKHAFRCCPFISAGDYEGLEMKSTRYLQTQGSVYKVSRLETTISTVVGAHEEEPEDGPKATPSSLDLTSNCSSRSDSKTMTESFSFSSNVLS
T4 sequence (P32300 whole entry): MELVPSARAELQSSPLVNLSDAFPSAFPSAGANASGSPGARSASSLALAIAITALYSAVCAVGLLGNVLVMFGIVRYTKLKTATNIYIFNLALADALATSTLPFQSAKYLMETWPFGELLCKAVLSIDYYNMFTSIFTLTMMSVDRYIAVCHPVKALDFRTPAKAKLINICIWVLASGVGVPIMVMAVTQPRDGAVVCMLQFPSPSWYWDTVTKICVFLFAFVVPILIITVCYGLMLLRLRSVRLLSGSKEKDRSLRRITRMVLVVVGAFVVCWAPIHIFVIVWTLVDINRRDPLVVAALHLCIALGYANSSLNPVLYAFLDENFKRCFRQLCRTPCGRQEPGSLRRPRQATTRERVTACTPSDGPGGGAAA

CC(=O)N[C@@H](Cc1c[nH]c2ccccc12)C(=O)OCc1cc(C(F)(F)F)cc(C(F)(F)F)c1 [L-732,138, Ac-Trp-3,5-O-Bzl(CF3)2, reference compound]
less affinity for rNK1 than hNK1 receptor [1]: 200 fold | Substance P antagonist, GPI, Ke ([2]; Table 16, in the presence of 1 μM naloxone): 250 ± 87 nM | Substance P antagonist, GPI, Ke ([2]; Table 22, in the presence of 1 μM naloxone): 250 ± 87 nM | Substance P antagonist, GPI, Ke ([2]; in the presence of 1 μM naloxone): 247 nM | Substance P antagonist, GPI, Ke ([2]; in the presence of 1 μM naloxone, 138): 247 ± 87 nM and 250 ± 87 nM

CSCC[C@H](NC(=O)[C@H](Cc1ccccc1)NC(=O)CNC(=O)[C@@H](C)NC(=O)[C@@H](N)Cc1ccc(O)cc1)C(=O)N1CCC[C@H]1C(=O)N[C@@H](CC(C)C)C(=O)N[C@@H](Cc1c[nH]c2ccccc12)C(=O)OCc1cc(C(F)(F)F)cc(C(F)(F)F)c1 [TY005, H-Tyr-D-Ala-Gly-Phe-Met-Pro-Leu-Trp-O-3,5-Bzl(CF3)2]
Emax ([3]; read-out: Emax, hDOR, [35S]GTP-γ-S binding): 51% | Emax ([3]; read-out: GTP binding hDOR Emax): 47.6% | Emax ([3]; read-out: GTP binding hDOR Emax (%)): 47.6% | time after administration at which efficacy disappeared (male Sprague Dawley rats [4]): 45 min | anti-nociceptive effect (male Sprague Dawley rats [4]; infrared radiant heat, words): very potent; also recorded: distinct anti-nociceptive effect | solubility [5]: < 0.2 µg/mL | sensorimotor impairment in rotarod test (normal, uninjured rats [6]): no sensorimotor impairment | IC50 (δ opioid receptors (MVD)): 22.3 nM | Emax ([7]; read-out: Emax, rMOR, [35S]GTP-γ-S binding): 45% | Emax ([7]; read-out: GTP binding rMOR Emax): 45.6% | Emax ([7]; read-out: GTP binding rMOR Emax (%)): 45.6% | blood brain barrier penetration [8]: penetrate blood brain barrier | sign of toxicity (male Sprague Dawley rats [9]): without any sign of toxicity; also recorded: no sign of toxicity | species difference between affinities at rNK1 and hNK1 [10]: 3.4 fold | anti-allodynic effect against mechanical stimulation [11]: very potent anti-allodynic effect | mechanical allodynia after chronic administration [11, 16]: reverses mechanical allodynia | Kb ([2]; Substance P antagonist, GPI, Ke, in the presence of 1 μM naloxone): 24.7 ± 8.8 nM | activation at 1 µM ([2]; read-out: Substance P GPI agonist (A50), at 1 μM, contraction relative to initial muscle contraction with KCl): 0% | IC50 (μ opioid receptors (GPI); Table 16, electrically stimulated isolated tissue, read-out: Opioid agonist GPI (μ), IC50): 360 ± 130 nM | IC50 (μ opioid receptors (GPI); Table 28, read-out: GPI/LMMP Opioid(m) Agonist (IC50; nM)): 359 nM | IC50 (μ opioid receptors (GPI); Table 30, read-out: GPI/LMMP Opioid(m) Agonist (IC50; nM)): 359 nM | IC50 (μ opioid receptors (GPI); Table 39, read-out: GPI/LMMP opioid(mu) agonist (IC50; nM)): 359 nM | IC50 (μ opioid receptors (GPI); electrically stimulated isolated tissue, read-out: GPI (μ), IC50): 359 ± 127 nM | LogIC50, hDOR, [3H]DPDPE [12]: −8.22 ± 0.06 | anti-hyperalgesic recovery ([13]; 30 μg i.th., SNL rats): ~100% | thermal hyperalgesia after chronic administration [13, 16]: attenuates thermal hyperalgesia | anti-hyperalgesic efficacy ([13]; i.th., SNL rats, words): very potent; also recorded: Dose dependent anti-hyperalgesic efficacy | logD7.4 [14]: >4.0 | Ki (rat NK1 (rNK1) receptor; Affinity rNK1 (Ki; nM), Table 29): 0.2 nM | IC50 (rat NK1 (rNK1) receptor; IC50, rNK1, Substance P radioligand): 6.4 nM | IC50 (rat NK1 (rNK1) receptor; LogIC50, rNK1, Substance P radioligand): 6.03 nM

CN1CC[C@]23c4c5ccc(O)c4O[C@H]2[C@@H](O)C=C[C@H]3[C@H]1C5 [morphine, reference compound]
rotarod performance (normal, uninjured rats [15]): impaired performance | anti-allodynic effect against mechanical stimulation [11]: negligible anti-allodynic efficacy
